Source: the NIST ThermoML archive (doi:10.1016/j.fluid.2007.06.010)
Numbers after ± are expanded uncertainties.

Test: refractive index (Na D-line) (dimensionless)
Conditions: 298.15 K; 101.33 kPa; Liquid; Standard Abbe refractometry

Row | refractive index | SMILES
1 | 1.389 ± 0.0007 | CC(C)CC(C)(C)C [2,2,4-trimethylpentane]
2 | 1.373 ± 0.0007 | CCOC(C)(C)C [2-ethoxy-2-methylpropane]
3 | 1.5255 ± 0.0007 | c1ccsc1 [thiophene]

Row | SMILES | refractive index
4 | Cc1ccccc1 [toluene] | 1.494 ± 0.0007
